Biological target: T1, OX2R (Homo sapiens, UniProt O43614)
T1 construct: expressed in transfected cells; host or cells: CHO (Chinese hamster ovary) cells constitutively expressing the OX2R gene and NFAT-luciferase (CHOOX2R)
T1 sequence (O43614 1-444): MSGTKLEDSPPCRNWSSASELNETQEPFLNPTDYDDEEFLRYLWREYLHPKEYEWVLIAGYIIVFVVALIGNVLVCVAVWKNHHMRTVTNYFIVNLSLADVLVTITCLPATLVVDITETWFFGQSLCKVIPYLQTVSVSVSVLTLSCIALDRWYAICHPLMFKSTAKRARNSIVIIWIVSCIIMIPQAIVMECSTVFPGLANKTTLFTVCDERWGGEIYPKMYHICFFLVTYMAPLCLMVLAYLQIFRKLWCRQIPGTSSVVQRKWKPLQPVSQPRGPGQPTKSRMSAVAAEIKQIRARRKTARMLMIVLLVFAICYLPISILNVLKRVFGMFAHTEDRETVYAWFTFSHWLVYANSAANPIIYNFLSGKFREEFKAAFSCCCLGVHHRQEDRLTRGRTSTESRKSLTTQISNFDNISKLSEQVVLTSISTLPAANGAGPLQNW
Assay: Evaluation of agonist activity against OX2R (CHOOX2R cells, Fura2AM fluorescence, FDSS3000)
Assay type: cell-based
Protocol: Evaluation of Agonist Activity Against OX2R
NFAT-luciferase gene and OX2R gene were each constitutively expressed in CHO cell, which is a cell line derived from Chinese hamster ovary to establish a cell line (CHOOX2R). The cells thereof were sown on a 96 well plate at 10000 cells/well, and cultured in a 5% FBS-added DMEM medium for 48 hr. […] After washing, HEPES buffer (75 μL) was added, a test compound solution (25 μL) was added, and changes in the fluorescence intensity were measured by FDSS3000 (Hamamatsu Photonics K.K.). The test compound was dissolved in DMSO (final concentration of DMSO was 1%), and diluted with HEPES buffer to a final concentration of 0.1 μM, 1.0 μM or 10 μM.

[1] = test compound 0.1 μM; relative to orexin-A as full agonist (100%); CHOOX2R cells
[2] = test compound 1.0 μM; relative to orexin-A as full agonist (100%); CHOOX2R cells
[3] = test compound 10 μM; relative to orexin-A as full agonist (100%); CHOOX2R cells
[4] = test compound 0.1 μM; CHOOX2R cells; relative to orexin-A as full agonist (100%)
[5] = test compound 1.0 μM; CHOOX2R cells; relative to orexin-A as full agonist (100%)
[6] = test compound 10 μM; CHOOX2R cells; relative to orexin-A as full agonist (100%)
[7] = OX2R agonist activity; CHOOX2R cells
[8] = conversion with orexin-A as full agonist (maximum agonist activity 100%)

Row | SMILES | Response (0.1 μM (%)) [1] | Response (1.0 μM (%)) [2] | Response (10 μM (%)) [3] | Response (0.1 μM (%)) [4] | Response (1.0 μM (%)) [5] | Response (10 μM (%)) [6] | EC50 [7] | Emax [8]
1 | COc1ccccc1C(=O)NCCNc1cccc(NS(=O)(=O)c2cc(-c3cccc(C(=O)N(C)C)c3)ccc2F)c1 [Example 107, 4′-fluoro-3′-(N-(3-((2-(2-methoxybenzamido)ethyl)amino)phenyl)sulfamoyl)-N,N-dimethyl-[1,1′-biphenyl]-3-carboxamide] | 65% | 79% | 82% |  |  |  |  | 
2 | COc1ccc(C(=O)NCCNc2cccc(NS(=O)(=O)c3cc(-c4ccccc4F)ccc3OC)c2)cc1 [Example 3, N-(2-((3-(2′-fluoro-4-methoxy-[1,1′-biphenyl]-3-ylsulfonamide)phenyl)amino)ethyl)-4-methoxybenzamide] | <5% | 11% | 50% |  |  |  |  | 
3 | COc1ccc(-c2cccc(C(=O)N3CCC3)c2)cc1S(=O)(=O)Nc1cccc(NCCNC(=O)c2cccc(F)c2)c1 [Example 84, N-(2-((3-(3′-(azetidine-1-carbonyl)-4-methoxy-[1,1′-biphenyl]-3-ylsulfonamido)phenyl)amino)ethyl)-3-fluorobenzamide] |  |  |  | 7% | 58% | 70% |  | 
4 | COc1ccc(-c2cccc(C(=O)N(C)C)c2)cc1S(=O)(=O)Nc1cccc(NCCNC(=O)c2c(F)cccc2OC)c1 [Example 70, 3′-(N-(3-((2-(2-fluoro-6-methoxybenzamido)ethyl)amino)phenyl)sulfamoyl)-4′-methoxy-N,N-dimethyl-[1,1′-biphenyl]-3-carboxamide] |  |  |  | 34% | 105% | 85% |  | 
5 | COc1ccc(-c2cccc(C(=O)N(C)C)c2)cc1S(=O)(=O)Nc1cccc(NCCNC(=O)c2ccccc2F)c1 [Example 43, 3′-(N-(3-((2-(2-fluorobenzamido)ethyl)amino)phenyl)sulfamoyl)-4′-methoxy-N,N-dimethyl-[1,1′-biphenyl]-3-carboxamide] |  |  |  | <5% | 55% | 94% | 300 nM | 94%
6 | COc1cccc(C(=O)NCCNc2cccc(NS(=O)(=O)c3cc(-c4cccc(C(=O)N5CCCC5)c4)ccc3OC)c2)c1 [Example 86, 3-methoxy-N-(2-((3-(4-methoxy-3′-(pyrrolidine-1-carbonyl)-[1,1′-biphenyl]-3-ylsulfonamido)phenyl)amino)ethyl)benzamide] |  |  |  | 10% | 89% | 81% |  | 
7 | COc1ccc(-c2ccccc2F)cc1S(=O)(=O)Nc1cccc(NCCNC(=O)c2cccc(Cl)c2)c1 [Example 8, 3-chloro-N-(2-((3-(2′-fluoro-4-methoxy-[1,1′-biphenyl]-3-ylsulfonamide)phenyl)amino)ethyl)benzamide] | <5% | 9% | 46% |  |  |  |  | 
8 | COc1ccccc1C(=O)NCCNc1cccc(NS(=O)(=O)c2cc(-c3cccc(C(=O)N4CCCCC4)c3)ccc2OC)c1 [Example 80, 2-methoxy-N-(2-((3-(4-methoxy-3′-(piperidine-1-carbonyl)-1-[1,1′-biphenyl]-3-ylsulfonamido)phenyl)amino)ethyl)benzamide] |  |  |  | 37% | 91% | 91% |  | 
9 | COc1cccc(C(=O)NCCNc2cccc(NS(=O)(=O)c3cc(-c4ccccc4O)ccc3OC)c2)c1 [Example 22, N-(2-((3-(2′-hydroxy-4-methoxy-[1,1′-biphenyl]-3-ylsulfonamide)phenyl)amino)ethyl)-3-methoxybenzamide] | <5% | 15% | 21% |  |  |  |  | 
10 | COc1cccc(C(=O)NCCNc2cccc(NS(=O)(=O)c3cc(-c4c(F)cccc4F)ccc3OC)c2)c1 [Example 18, N-(2-((3-(2′,6′-difluoro-4-methoxy-[1,1′-biphenyl]-3-ylsulfonamide)phenyl)amino)ethyl)-3-methoxybenzamide] | <5% | 13% | 151% |  |  |  |  | 
11 | COc1ccccc1C(=O)NCCNc1cccc(NS(=O)(=O)c2cc(-c3cccc(NCC(C)C)c3)ccc2OC)c1 [Example 38, N-(2-((3-(3′-(isobutylamino)-4-methoxy-[1,1′-biphenyl]-3-ylsulfonamide)phenyl)amino)ethyl)-2-methoxybenzamide] |  |  |  | 8% | 37% | 113% |  | 
12 | COc1ccc(-c2cccc(C(=O)N(C)C)c2)cc1S(=O)(=O)Nc1cccc(NCCNC(=O)c2cc(F)ccc2F)c1 [Example 53, 3′-(N-(3-((2-(2,5-difluorobenzamido)ethyl)amino)phenyl)sulfamoyl)-4′-methoxy-N,N-dimethyl-[1,1′-biphenyl]-3-carboxamide] |  |  |  | 46% | 89% | 66% | 1150 nM | 87%
13 | COc1ccc(-c2cccc(C(=O)N(C)C)c2)cc1S(=O)(=O)Nc1cccc(NCCNC(=O)c2sccc2C)c1 [Example 60, N-(2-((3-(3′-(dimethylcarbamoyl)-4-methoxy-[1,1′-biphenyl]-3-ylsulfonamido)phenyl)amino)ethyl)-3-methylthiophene-2-carboxamide] |  |  |  | <5% | 43% | 75% |  | 
14 | COc1ccccc1C(=O)NCCNc1cccc(NS(=O)(=O)c2cc(-c3cc(F)ccc3F)ccc2OC)c1 [Example 19, N-(2-((3-(2′,5′-difluoro-4-methoxy-[1,1′-biphenyl]-3-ylsulfonamide)phenyl)amino)ethyl)-2-methoxybenzamide] | <5% | 8% | 143% |  |  |  |  | 
15 | COc1cccc(C(=O)NCCNc2cccc(NS(=O)(=O)c3cc(-c4ccccc4C)ccc3OC)c2)c1 [Example 21, 3-methoxy-N-(2-((3-(4-methoxy-2′-methyl-[1,1′-biphenyl]-3-ylsulfonamide)phenyl)amino)ethyl)benzamide] | <5% | <5% | 11% |  |  |  |  | 
16 | COc1ccccc1C(=O)NCCNc1cccc(NS(=O)(=O)c2cccc(-c3cccc(C(=O)N(C)C)c3)c2)c1 [Example 110, 3′-(N-(3-((2-(2-methoxybenzamido)ethyl)amino)phenyl)sulfamoyl)-N,N-dimethyl-[1,1′-biphenyl]-3-carboxamide] | <5% | <5% | 28% |  |  |  |  | 
17 | COc1ccc(-c2cccc(C(=O)N(C)C)c2)cc1S(=O)(=O)Nc1cccc(NCCNC(=O)c2ccc(Cl)s2)c1 [Example 61, 5-chloro-N-(2-((3-(3′-(dimethylcarbamoyl)-4-methoxy-[1,1′-biphenyl]-3-ylsulfonamido)phenyl)amino)ethyl)thiophene-2-carboxamide] |  |  |  | <5% | 18% | 69% |  | 
18 | COc1ccccc1C(=O)NCCNc1cccc(NS(=O)(=O)c2cc(-c3cccc(C(=O)N(C)C(C)(C)C)c3)ccc2OC)c1 [Example 76, N-(tert-butyl)-4′-methoxy-3′-(N-(3-((2-(2-methoxybenzamido)ethyl)amino)phenyl)sulfamoyl)-N-methyl-[1,1′-biphenyl]-3-carboxamide] |  |  |  | 24% | 95% | 98% |  | 
19 | COc1ccccc1C(=O)NCCNc1cccc(NS(=O)(=O)c2cc(-c3cccc(C(=O)N(C)C)c3)ccc2C)c1 [Example 106, 3′-(N-(3-((2-(2-methoxybenzamido)ethyl)amino)phenyl)sulfamoyl)-N,N,4′-trimethyl-[1,1′-biphenyl]-3-carboxamide] | <5% | 27% | 39% |  |  |  |  | 
